Source: patent US20080044491A1, “METAL-CONTAINING FORMULATIONS AND METHODS OF USE” (priority 2006, published 2008)
In brackets after ≈: the same amount, converted by molar mass. Entries after “also recorded” stand apart in the source; their conditions may differ.

What was measured:
[1] = Compatibility of nanocrystalline silver with excipients; assay type: physicochemical; details: 10% aqueous solution of excipient with nanocrystalline silver, glass vial, 40° C. overnight
[2] = test system: Enterobacter cloacae; test: MIC assay (microdilution); assay type: cell-based; details: Ent. cloacae
[3] = test system: Escherichia coli; test: MIC assay (microdilution); assay type: cell-based
[4] = test system: DNBS-induced colitis; test: DNBS-induced colitis in rat: total IBD score; assay type: in vivo
Procedure: Sulfasalazine (Sigma Chemicals, St Louis, Mo.), at a concentration of 120 mg/ml for intracolonic treatment and 30 mg/ml for oral treatment was used as the reference drug in all the experiments. Sulfasalazine was first dissolved in 0.1M NaOH at a concentration about 30-fold higher than the required final concentration, and then suspended in 1.5% PVA for oral dosing and 5.7% PVA for intracolonic dosing.
One group was not treated and served as no treatment group. Treatment began one day after administration of DNBS.
Macroscopic Observations: Body weight was recorded daily and the animals were examined for their physical appearance. After five days of treatment, animals were sacrificed. The colon was excised between the ileocecal junction and rectum, and opened longitudinally. After scoring of the consistency of the stool the colon was rinsed in normal saline, examined and thickness of the colonic wall and number and size of ulcers were scored. Stool consistency was graded on a scale of 0-3: 0=normal stool, well formed pellets rigid as normal; 1=loose stool, formed pellet with moisture, soft stool keeping in stool shape; 2=loose stool, stools that have abnormal form with much moisture, softer shapeless stool; 3=watery or bloody diarrhea.
Thickness of colonic wall was graded on a scale of 0-4: 0=normal, no thickness; 1=mild thickness in lower portion of the colon; 2=moderate thickness in localized area; 3=moderate thickness extending to the central portion of the colon; 4=severe thickness in the whole colon. Colonic ulceration was graded on a scale of 0-10: 0=no ulcers; 1=one small ulcer less than 2-3 mm; 2=one large ulcer more than 2-3 mm; 3=two large ulcerations more than 2-3 mm in diameter; 4=two or more sites of ulcerations extending 1 cm along the length; 5-10=when an area of ulceration extended more than 1 cm along the length of the colon, the score increases by 1 for each additional cm of involvement. The total IBD score, obtained by the sum of the scores of colonic ulcer, colon thickness and stool consistency for each animal, was calculated for each treatment group.
Statistical Analysis: The results are expressed as the mean ±SE. The statistical significance in the mean total IBD score, histopathological inflammation score, and the immunohistochemical staining of cytokines or MMP-9 was determined using Tukey-Kramer's multiple comparison tests following one-way analysis of variance (ANOVA). The data were calculated with the aid of Instat Graph Pad Software. Differences with a P value less than 0.05 were considered significant.
Methods: Colitis was induced in rats using DNBS as described in Example 25. Animals were treated intracolonically (250 μl of the test reagents) once a day for five days. […] Methods: Colitis was induced in rats using DNBS as described in Example 25. Animals were treated intracolonically (250 μl of the test reagents) once a day for five days.

[5] = DNBS-induced colitis in rat: body weight change; assay type: in vivo; details: rats with DNBS-induced colitis (FIGS. 10, 11)
From the text: Animals: Male Sprague-Dawley rats, weighing approximately 250-300 gm were purchased from Charles River Laboratories (Raleigh, N.C.). The animals were housed under standard conditions with free access to food and water. They were acclimatized for 2-3 days before commencing the experiments. The study protocol was approved by the Institutional Animal Care and Use Committees (IACUC).
Induction of ulcerative colitis: Colitis was produced according to published methods. Animals were anesthetized by intraperitoneal injection of 75 mg/kg of ketamine plus 5 mg/kg of xylazine. A single intracolonic injection of 120 mg/ml of dinitrobenzenesulfonic acid (DNBS) (Sigma Chemicals, St. Louis, Mo.) in 250 micro liter of 50% ethanol was administered through a Tom Cat catheter (Kendall Sovereign, Mansfield, Mass.) with a closed-end tip, connected to a 1 ml syringe and placed 7 cm proximal to the anus. Lubricant was applied to the tip of the catheter before injection, to protect from mucosal injury. After instillation of DNBS, 0.5 ml of air was insufflated and the catheter was removed. […]
Macroscopic Observations: Body weight was recorded daily and the animals were examined for their physical appearance. […] After scoring of the consistency of the stool the colon was rinsed in normal saline, examined and thickness of the colonic wall and number and size of ulcers were scored. […]

[6] = test system: DNBS-induced colitis; test: DNBS-induced colitis in rat: histopathological inflammation score of colon; assay type: in vivo; details: oral, 100 mg/kg, five days
Procedure: Histopathology: A piece of colonic tissue at 2-4 cm proximal to the anus was excised and fixed in 10% formalin and the sections were stained with hematoxylin and eosin. The remaining length of the colonic tissues was stored at −80° C. for subsequent biochemical assays. The histology slides were examined by a veterinary pathologist who was blinded to the treatment groups. The extent of microscopic mucosal damage of the colon was scored on scale of 0-5 as described with slight modification: 0=normal histological appearance; 1=histological damage limited to surface epithelium, mild infiltration of the submucosa; 2=focal ulceration and cell disruption limited to mucosa, abnormal appearance of colonic wall, mild infiltration of inflammatory cells; 3=focal, transmural inflammation and ulceration, with mild to moderate infiltration of inflammatory cells; 4=Extensive transmural ulceration and inflammation bordered by areas of normal mucosa, moderate infiltration of inflammatory cells; 5=extensive transmural ulceration and inflammation involving entire section from epithelium to serosa, severe infiltration of inflammatory cells.
Statistical Analysis: The results are expressed as the mean ±SE. […] The data were calculated with the aid of Instat Graph Pad Software. […]

[7] = test system: IL-1β; test: Immunohistochemical staining of colonic tissue; assay type: in vivo, rat; details: DNBS colitis, five days oral treatment
Procedure: (§1) Immunohistochemistry: A Universal Streptavidin/Biotin detection system (Thermo Shandon, Pittsburgh, Pa.) was used for immunohistochemical staining of formalin fixed, paraffin embedded biopsies of the colon. After dewaxing, and hydration, sections were treated with protein blocking agent to reduce non-specific binding of antibodies. The tissues were then incubated with rabbit anti-rat TNF-α, or mouse anti-rat IL-12 p70 antibodies (Biosource International, Inc, Camarillo, Calif.); rabbit anti-rat IL-1β (Serotec, Raleigh, N.C.) or rabbit anti-rat MMP-9 antibody (Chemicon International, Telecuma, Calif.) in 1% bovine serum albumin in phosphate buffered saline. Incubations with secondary antibodies, streptavidin/biotin, and chromogenic detection of peroxidase were performed according to the manufacturer's protocol. Sections were counterstained, dehydrated, mounted and examined. The intensity of the immuno-peroxidase staining was graded as described previously. Expression of cytokines was graded as: 0, no staining in the section; 1, less than 25% of the section; 2, 25-50% of the section; 3, 50-75% of the section; 4, >75% of the section with significant staining.

[8] = test system: MMP-9; test: Immunohistochemical staining of colonic tissue; assay type: in vivo, rat; details: vs placebo and no treatment (FIG. 19)
Procedure: as §1

[9] = test system: TNF-α; test: Immunohistochemical staining of colonic tissue; assay type: in vivo, rat; details: DNBS colitis, five days oral treatment
Procedure: as §1

[10] = test system: MMP-9; test: Gelatin zymography of colonic homogenates; assay type: in vivo, rat; details: oral 100 mg/kg
Procedure: Gelatin Zymography: Activities of MMP-9 and MMP-2 in colonic tissue homogenates were determined by gelatin zymography as described previously. Briefly, colonic homogenates were mixed with equal volume of zymograph sample buffer. Samples were loaded on a 10% SDS-polyacrylamide gel containing 0.1% gelatin. After electrophoresis, the SDS was removed from the gel by incubation with renaturing buffer containing 2% Triton-X-100 for 1 hour. The gel was incubated overnight in developing buffer containing 50 mM Tris-HCl, pH 7.8, 5 mM CaCl2, 0.2 M NaCl, 0.02% Brij-35. The gel was subsequently stained with Coumassie blue for 30 minutes and destained with destaining solution containing 8% acetic acid and 4% methanol. Gelatinolytic activity was determined as transparent bands against the blue background of stained gelatin. MMPs were identified by their molecular weight compared with the standards. Absence of a transparent band on the gel was evidenced as no MMP-9 or MMP-2 activity of the sample tested.

[11] = test system: Staphylococcus aureus; test: MIC assay (microdilution); assay type: cell-based; details: lactate solutions, nanocrystalline silver = range for 12 samples
[12] = test system: Staphylococcus epidermidis; test: MIC assay (microdilution); assay type: cell-based; details: S. epiderm (ATCC); lactate solutions; nanocrystalline silver = range for 12 samples
[13] = test system: Streptococcus pyogenes; test: MIC assay (microdilution); assay type: cell-based; details: lactate solutions, nanocrystalline silver = range for 12 samples
[14] = test system: Streptococcus pneumoniae; test: MIC assay (microdilution); assay type: cell-based; details: lactate solutions, nanocrystalline silver = range for 12 samples
[15] = test system: Pseudomonas aeruginosa; test: MIC assay (microdilution); assay type: cell-based; details: lactate solutions, nanocrystalline silver = range for 12 samples
[16] = test system: Mycobacterium tuberculosis H37Ra (ATCC 25177); assay type: cell-based

OCc1ccccc1 [Benzyl alcohol]
Reaction with nanocrystalline silver [1]: Grey/slightly red

CCCCCCCCCCCCCCCCCCO [Cetearyl alcohol]
Reaction with nanocrystalline silver [1]: Light brown/green/black

CCCCCCCCCCCCCCCCO [Cetyl alcohol]
Reaction with nanocrystalline silver [1]: Grey color - no discoloration

CCCCCCCCCCCCCCCCCC(=O)OCC(O)CO (stereo not drawn) [Glycerol monostearate]
Reaction with nanocrystalline silver [1]: Brown discoloration

CCCCCCCCCCCCCC(=O)OC(C)C [Isopropyl myristate]
Reaction with nanocrystalline silver [1]: Grey color - no discoloration

COC(=O)c1ccc(O)cc1 [Methylparaben]
Reaction with nanocrystalline silver [1]: Brown discoloration

CC(O)CO (stereo not drawn) [Propylene glycol]
Reaction with nanocrystalline silver [1]: Discoloration

CCCOC(=O)c1ccc(O)cc1 [Propylparaben]
Reaction with nanocrystalline silver [1]: Green discoloration

OO [Sample H2O2, hydrogen peroxide]
Reaction with nanocrystalline silver [1]: Brown discoloration after drying
MIC ([2]; Catalase/SOD +): >500 µg/mL
MIC ([2]; Catalase/SOD −): 63 µg/mL (≈ 1850 µM)
MIC ([3]; E. coli, Catalase/SOD +): >500 µg/mL
MIC ([3]; E. coli, Catalase/SOD −): 31 µg/mL (≈ 911 µM)

O=C([O-])c1ccccc1.[Na+] [Sodium benzoate]
Reaction with nanocrystalline silver [1]: White precipitate

CCCCCCCCCCCCCCCCCC(=O)O [Stearic acid]
Reaction with nanocrystalline silver [1]: Grey color - no discoloration

CCOCCOCCO [Transcutol, diethylene glycol monoethyl ether]
Reaction with nanocrystalline silver [1]: Grey color - no discoloration

O=C(O)c1cc(/N=N/c2ccc(S(=O)(=O)Nc3ccccn3)cc2)ccc1O [sulfasalazine, salicylazosulfapyridine]
total IBD score vs placebo ([4]; intracolonic, 100 mg/kg, five days): Significant reduction; also recorded: significantly reduced total IBD score
total IBD score vs placebo ([4]; intracolonic, 100 mg/kg, five days, listed as Sulfasalazine): significantly reduced total IBD score
total IBD score ([4]; oral, 100 mg/kg, five days): significant reduction
body weight change [5]: started gaining body weight after one day of treatment
histopathological inflammation vs placebo and untreated [6]: significantly reduced
expression of IL-1β (immunohistochemical staining) [7]: significantly reduced the expression
expression of MMP-9 (immunohistochemical staining) [8]: significantly reduced the expression
expression of TNF-α (immunohistochemical staining) [9]: significantly reduced the expression
MMP-9 activity (gelatin zymography) [10]: reduced MMP-9 activity

Sodium parabens
Reaction with nanocrystalline silver [1]: Precipitation

silver oxide [Ag2O]
MIC ([11]; S. aureus (ATCC)): 3 µg/mL
MIC ([11]; S. aureus (clin.)): 6 µg/mL
MIC [12]: 2 µg/mL
MIC ([13]; S. pyog (clin. 303)): 2 µg/mL
MIC ([13]; S. pyog (clin. 304)): 3 µg/mL
MIC ([14]; S. pneumo (clin 314)): 3 µg/mL
MIC ([14]; S. pneumo (clin 315)): 2 µg/mL
MIC ([15]; P. aerug (ATCC)): 0.8 µg/mL
MIC ([15]; P. aerug. (clin.)): 2 µg/mL
MIC ([3]; E. coli (ATCC), lactate solutions, nanocrystalline silver = range for 12 samples): 0.8 µg/mL
minimum inhibitory concentration (MIC) [16]: 2.5 μg/ml silver
total IBD score vs placebo ([4]; intracolonic 250 μl once a day for five days, 0.25% homogenized): unable to show significant reduction
total IBD score vs placebo ([4]; intracolonic 250 μl once a day for five days, 0.25% sonicated nanodispersion): but not 0.25% sonicated
total IBD score vs placebo ([4]; intracolonic 250 μl once a day for five days, 0.5% homogenized): unable to show significant reduction
total IBD score vs placebo ([4]; intracolonic 250 μl once a day for five days, 0.5% sonicated nanodispersion): significantly reduced the total IBD score
total IBD score vs placebo ([4]; intracolonic 250 μl once a day for five days, 1.5% sonicated nanodispersion): significantly reduced the total IBD score
